For 14 compounds, IC50 results are on record in patent publication US20230203059A1, “MACROCYCLIC JAK INHIBITOR AND USES THEREOF” (Biopolar Hongye (Guangdong) Pharmaceutical Co. Ltd., priority 2020, published 2023).

pIC50: −log10 of the molar value. A value given as a limit tells only on which side of the number the result lay.

What all share (assay type): biochemical
The target in one test is JAK1 (Homo sapiens, UniProt P23458). Nature of the test: JAK kinase activity, homogeneous time-resolved fluorescence (JAK1 reaction system). Conditions: ATP 2 μM, JAK1 protein 0.2 ng/μL; read-out: JAK 1 activity. The gist of the method: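 Kinase activity read as the 665 nm/615 nm time-resolved fluorescence ratio (320 nm excitation) after EDTA-containing antibody and XL-615 addition. Reaction ran 1 h at pH 7.0 (Hepes, MgCl2, DTT) with 0.2 ng/μL JAK1 and ATP at 2 μM. IC50 derived by Hill-slope fit.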
JAK1, sequence (P23458 whole entry): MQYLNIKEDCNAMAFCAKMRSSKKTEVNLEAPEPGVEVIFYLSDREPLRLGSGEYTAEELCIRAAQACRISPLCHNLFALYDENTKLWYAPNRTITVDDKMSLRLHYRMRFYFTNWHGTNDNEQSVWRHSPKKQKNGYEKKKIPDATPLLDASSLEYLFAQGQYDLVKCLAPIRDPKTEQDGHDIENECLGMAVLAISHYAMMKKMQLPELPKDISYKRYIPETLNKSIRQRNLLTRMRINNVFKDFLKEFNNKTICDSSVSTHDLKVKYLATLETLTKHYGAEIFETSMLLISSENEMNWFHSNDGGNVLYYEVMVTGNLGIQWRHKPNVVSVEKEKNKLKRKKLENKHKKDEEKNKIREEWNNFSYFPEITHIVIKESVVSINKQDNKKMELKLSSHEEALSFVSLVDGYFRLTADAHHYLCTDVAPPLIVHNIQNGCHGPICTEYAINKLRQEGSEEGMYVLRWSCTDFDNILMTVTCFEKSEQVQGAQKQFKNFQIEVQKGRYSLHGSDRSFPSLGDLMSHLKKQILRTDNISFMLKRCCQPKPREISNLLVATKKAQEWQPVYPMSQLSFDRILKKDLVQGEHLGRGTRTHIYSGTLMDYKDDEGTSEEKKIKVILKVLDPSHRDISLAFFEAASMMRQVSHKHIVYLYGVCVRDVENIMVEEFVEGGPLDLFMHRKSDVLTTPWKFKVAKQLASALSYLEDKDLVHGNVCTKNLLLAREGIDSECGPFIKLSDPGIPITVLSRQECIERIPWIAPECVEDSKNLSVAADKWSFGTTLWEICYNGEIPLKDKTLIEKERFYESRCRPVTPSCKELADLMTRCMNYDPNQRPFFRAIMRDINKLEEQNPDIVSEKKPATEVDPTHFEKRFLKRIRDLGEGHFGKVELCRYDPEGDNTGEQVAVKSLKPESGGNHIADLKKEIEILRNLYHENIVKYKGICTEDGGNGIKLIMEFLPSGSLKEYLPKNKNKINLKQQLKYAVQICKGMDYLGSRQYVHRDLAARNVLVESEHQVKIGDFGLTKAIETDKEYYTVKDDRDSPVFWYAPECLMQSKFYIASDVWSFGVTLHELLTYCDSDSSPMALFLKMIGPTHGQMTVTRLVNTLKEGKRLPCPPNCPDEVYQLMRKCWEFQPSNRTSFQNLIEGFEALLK

The next test deals with JAK2 (Homo sapiens, UniProt O60674). Nature of the test: JAK kinase activity, homogeneous time-resolved fluorescence (JAK2 reaction system). The settings on record: ATP 2 μM, JAK2 protein 0.01 ng/μL. The gist of the method:
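IC50 derived by Hill-equation fit of the 665/615 nm time-resolved fluorescence ratio after EDTA-containing detection mix with anti-phosphosubstrate antibody. Preceding 1 h reaction contained 2 μM ATP, 0.01 ng/μL JAK2, substrate, 50 mM Hepes pH 7.0, 5 mM MgCl2, 1 mM DTT.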

In a further test the target is T1, JAK3 (Homo sapiens, UniProt P52333).
T1 sequence (P52333 1-1124): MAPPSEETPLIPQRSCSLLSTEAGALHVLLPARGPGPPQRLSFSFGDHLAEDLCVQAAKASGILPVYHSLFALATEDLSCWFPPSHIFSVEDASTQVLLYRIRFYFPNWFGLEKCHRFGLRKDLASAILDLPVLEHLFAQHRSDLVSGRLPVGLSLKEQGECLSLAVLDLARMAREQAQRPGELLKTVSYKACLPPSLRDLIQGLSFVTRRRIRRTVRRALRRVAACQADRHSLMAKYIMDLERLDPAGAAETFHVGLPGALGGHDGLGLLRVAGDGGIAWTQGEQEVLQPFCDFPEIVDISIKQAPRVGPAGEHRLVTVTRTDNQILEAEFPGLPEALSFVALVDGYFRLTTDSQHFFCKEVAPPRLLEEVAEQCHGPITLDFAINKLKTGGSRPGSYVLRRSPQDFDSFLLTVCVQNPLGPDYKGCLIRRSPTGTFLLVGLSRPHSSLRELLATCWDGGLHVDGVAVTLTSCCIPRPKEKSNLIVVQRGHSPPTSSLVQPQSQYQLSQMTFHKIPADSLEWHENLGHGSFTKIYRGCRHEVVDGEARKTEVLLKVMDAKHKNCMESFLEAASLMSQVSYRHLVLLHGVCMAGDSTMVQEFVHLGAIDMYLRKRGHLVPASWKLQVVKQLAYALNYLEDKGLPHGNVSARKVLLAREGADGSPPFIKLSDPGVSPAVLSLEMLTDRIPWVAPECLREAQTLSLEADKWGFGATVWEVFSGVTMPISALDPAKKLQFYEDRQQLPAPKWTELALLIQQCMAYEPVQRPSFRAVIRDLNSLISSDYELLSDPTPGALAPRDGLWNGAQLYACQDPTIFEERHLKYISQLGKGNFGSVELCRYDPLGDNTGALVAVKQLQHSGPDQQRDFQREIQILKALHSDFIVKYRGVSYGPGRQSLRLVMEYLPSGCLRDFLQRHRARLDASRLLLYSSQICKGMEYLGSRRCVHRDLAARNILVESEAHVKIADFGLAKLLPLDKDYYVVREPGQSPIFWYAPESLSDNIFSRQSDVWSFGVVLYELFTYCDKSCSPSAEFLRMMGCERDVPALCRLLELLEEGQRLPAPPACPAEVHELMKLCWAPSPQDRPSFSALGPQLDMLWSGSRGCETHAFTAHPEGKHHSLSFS
The test can be described thus: JAK kinase activity, homogeneous time-resolved fluorescence (JAK3 reaction system). Conditions: ATP 2 μM, JAK3 protein 0.04 ng/μL; read-out: JAK 3 activity.

The next test addresses TYK2 (Homo sapiens, UniProt P29597). The test can be described thus: JAK kinase activity, homogeneous time-resolved fluorescence (TYK2 reaction system). Conditions: ATP 2 μM, TYK2 protein 0.2 ng/μL; read-out: TYK 2 activity. In short, it runs like this:
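Activity read as the 665 nm/615 nm ratio after adding EDTA-containing detection mix with anti-phospho-substrate antibody and XL-615. Beforehand, 0.2 ng/μL TYK2, 2 μM ATP, substrate and compound reacted 1 h in pH 7.0 Hepes buffer with MgCl2 and DTT. IC50 fitted with Hill-slope equation.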

JAK2, sequence (O60674 whole entry): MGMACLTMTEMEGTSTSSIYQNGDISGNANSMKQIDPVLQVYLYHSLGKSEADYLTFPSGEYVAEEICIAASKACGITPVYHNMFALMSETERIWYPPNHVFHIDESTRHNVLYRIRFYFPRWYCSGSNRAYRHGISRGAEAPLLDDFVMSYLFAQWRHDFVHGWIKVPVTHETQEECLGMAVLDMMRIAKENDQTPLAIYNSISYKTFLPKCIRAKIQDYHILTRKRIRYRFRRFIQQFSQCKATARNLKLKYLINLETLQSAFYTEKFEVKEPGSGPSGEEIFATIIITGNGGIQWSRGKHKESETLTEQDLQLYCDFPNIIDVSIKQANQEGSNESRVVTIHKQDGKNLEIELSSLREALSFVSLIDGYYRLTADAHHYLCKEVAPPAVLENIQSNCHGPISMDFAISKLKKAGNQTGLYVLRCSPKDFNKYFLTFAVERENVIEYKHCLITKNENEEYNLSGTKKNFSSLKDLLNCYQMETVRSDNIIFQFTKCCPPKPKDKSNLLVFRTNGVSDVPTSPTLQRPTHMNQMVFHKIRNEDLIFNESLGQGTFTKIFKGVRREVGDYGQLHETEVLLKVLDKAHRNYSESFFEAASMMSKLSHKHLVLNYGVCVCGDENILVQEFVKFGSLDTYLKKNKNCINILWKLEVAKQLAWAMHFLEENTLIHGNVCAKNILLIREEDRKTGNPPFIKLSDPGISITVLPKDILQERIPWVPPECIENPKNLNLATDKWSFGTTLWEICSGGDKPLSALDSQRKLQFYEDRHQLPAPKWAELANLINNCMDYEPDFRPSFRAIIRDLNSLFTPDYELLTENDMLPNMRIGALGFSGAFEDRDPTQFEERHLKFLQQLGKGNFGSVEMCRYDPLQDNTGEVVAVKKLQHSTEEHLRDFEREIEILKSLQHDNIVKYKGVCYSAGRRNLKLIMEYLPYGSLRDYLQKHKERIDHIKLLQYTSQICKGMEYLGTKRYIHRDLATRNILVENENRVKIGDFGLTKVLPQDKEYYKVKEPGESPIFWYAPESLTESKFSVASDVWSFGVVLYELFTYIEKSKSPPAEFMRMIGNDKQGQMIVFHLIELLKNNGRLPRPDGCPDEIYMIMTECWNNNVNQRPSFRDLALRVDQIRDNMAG
TYK2, sequence (P29597 whole entry): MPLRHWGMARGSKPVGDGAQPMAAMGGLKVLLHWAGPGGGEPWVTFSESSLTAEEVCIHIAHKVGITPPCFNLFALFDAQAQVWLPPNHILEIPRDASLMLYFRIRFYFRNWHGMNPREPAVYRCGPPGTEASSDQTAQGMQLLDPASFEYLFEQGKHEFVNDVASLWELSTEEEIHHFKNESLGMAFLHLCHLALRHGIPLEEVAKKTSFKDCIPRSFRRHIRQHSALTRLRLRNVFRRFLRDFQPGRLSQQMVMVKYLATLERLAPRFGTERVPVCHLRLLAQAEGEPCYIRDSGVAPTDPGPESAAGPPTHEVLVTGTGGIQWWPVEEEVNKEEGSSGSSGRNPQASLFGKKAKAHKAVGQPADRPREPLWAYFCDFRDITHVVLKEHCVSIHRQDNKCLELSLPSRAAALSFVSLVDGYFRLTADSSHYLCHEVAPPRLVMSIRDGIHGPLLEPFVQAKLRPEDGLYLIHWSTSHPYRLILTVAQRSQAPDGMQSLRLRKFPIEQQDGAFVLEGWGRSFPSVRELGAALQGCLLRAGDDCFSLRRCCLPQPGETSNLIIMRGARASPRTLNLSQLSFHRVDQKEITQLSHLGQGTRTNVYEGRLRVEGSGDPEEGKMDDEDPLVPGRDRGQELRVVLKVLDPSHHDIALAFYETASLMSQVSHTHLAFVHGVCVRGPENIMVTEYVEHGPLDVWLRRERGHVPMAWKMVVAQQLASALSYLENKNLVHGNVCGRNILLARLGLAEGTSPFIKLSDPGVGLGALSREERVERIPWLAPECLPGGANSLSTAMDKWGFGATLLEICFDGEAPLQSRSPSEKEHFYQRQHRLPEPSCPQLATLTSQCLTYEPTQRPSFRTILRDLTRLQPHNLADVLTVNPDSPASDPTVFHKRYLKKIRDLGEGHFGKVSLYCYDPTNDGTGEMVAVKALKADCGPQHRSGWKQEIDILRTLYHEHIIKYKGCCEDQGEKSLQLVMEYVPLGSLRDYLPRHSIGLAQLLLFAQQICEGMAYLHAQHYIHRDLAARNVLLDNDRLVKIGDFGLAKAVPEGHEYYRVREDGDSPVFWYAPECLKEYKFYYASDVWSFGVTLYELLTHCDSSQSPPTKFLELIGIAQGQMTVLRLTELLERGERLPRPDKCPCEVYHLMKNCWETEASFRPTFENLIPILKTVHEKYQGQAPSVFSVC

With `O=C1Nc2ccc(cc2)OCc2cc(ccc2Oc2cccnc2)Nc2nccc(n2)-c2ccc1cc2[N+](=O)[O-]` [Example 204, 1-nitro-4^4-(pyridin-3-oxy)-6-oxa-3,8-diaza-2(4,2)-pyrimidina-1,7(1,4),4(1,3)-tribenzenacyclononaphen-9-one], the pIC50 was 5.00 to 6.00 at JAK1, less than 5.00 against JAK2, 5.00 to 6.00 at JAK3 and less than 5.00 on TYK2.

Regarding `Nc1cc2ccc1-c1ccnc(n1)Nc1ccc(Oc3cccnc3)c(c1)COc1ccc(cc1)NC2=O` [Example 205, 1^2-amino-4^4-(pyridin-3-oxy)-6-oxa-3,8-diaza-2(4,2)-pyrimidina-1,7(1,4),4(1,3)-tribenzenacyclononaphane-9-one], the pIC50 at JAK1 was 5.00 to 6.00; at JAK2, 5.00 to 6.00; on JAK3, 7.00 to 7.96; on TYK2, less than 5.00.

`O=C1Nc2ccc(cc2)OCc2cc(ccc2OCC2CC2)Nc2nccc(n2)-c2ccc1cc2[N+](=O)[O-]` [Example 206, 4^4-(cyclopropylmethoxy)-1-nitro-6-oxa-3,8-diaza-2(4,2)-pyrimidina-1,7(1,4),4(1,3)-tribenzenacyclo-nonaphane-9-one]: the pIC50 on JAK1 is 5.00 to 6.00; on JAK2, 6.00 to 7.00; at JAK3 it was more than 8.00; on TYK2, less than 5.00.

With `Cc1cc2ccc1NC(=O)c1ccc(c(N)c1)-c1ccnc(n1)Nc1ccc(OC3CC3)c(c1)CO2` [Example 207, 1^2-amino-4^4-cyclopropoxy-7^3-meth-yl-6-oxa-3,8-diaza-2(4,2)-pyrimidina-1,7(1,4),4(1,3)-tribenzenacyclo-nonaphane-9-one], the pIC50 is 6.00 to 7.00 on JAK1, 6.00 to 7.00 on JAK2, 7.00 to 7.96 on JAK3 and 5.00 to 6.00 on TYK2.

In the case of `Nc1cc2ccc1-c1ccnc(n1)Nc1ccc(OCC3CC3)c(c1)COc1ccc(cc1)NC2=O` [Example 208, 1^2-amino-4^4-(cyclopropylmethoxy)-6-oxa-3,8-diaza-2(4,2)-pyrimidina-1,7(1,4),4(1,3)-tribenzenecyclo-nonaphane-9-one], the pIC50 at JAK1 was less than 5.00; against JAK2, 5.00 to 6.00; at JAK3, 7.00 to 7.96; at TYK2 it was less than 5.00.

Regarding `O=C1Nc2ccc(cc2)OCc2cc(ccc2OCC2CC(F)(F)C2)Nc2nccc(n2)-c2ccc1cc2[N+](=O)[O-]` [Example 209, 4^4-((3,3-difluorocyclobutyl)methoxy)-1^2-nitro-6-oxa-3,8-diaza-2(4,2)-pyrimidina-1,7(1,4),4(1,3)-tri-benzenacyclononaphane-9-one], the pIC50 on JAK1 was less than 5.00; against JAK2, 5.00 to 6.00; at JAK3 it was 5.00 to 6.00; at TYK2 it was less than 5.00.

In the case of `Nc1cc2ccc1-c1ccnc(n1)Nc1ccc(OCC3CC(F)(F)C3)c(c1)COc1ccc(cc1)NC2=O` [Example 210, 1^2-amino-4^4-((3,3-difluorocyclobutyl)methoxy)-6-oxa-3,8-diaza-2(4,2)-pyrimidina-1,7(1,4),4(1,3)-tribenz-enacyclononaphane-9-one], the pIC50 is less than 5.00 on JAK1, less than 5.00 at JAK2, 7.00 to 7.96 on JAK3 and less than 5.00 at TYK2.

Turning to `Nc1cc2ccc1-c1ccnc(n1)Nc1ccc(OCC3CCOC3)c(c1)COc1ccc(cc1)NC2=O` (centres unmarked) [Example 211, 1^2-amino-4^4-((tetrahydrofuran-3-yl)methoxy)-6-oxa-3,8-diaza-2(4,2)-py-rimidina-1,7(1,4),4(1,3)-tribenzena-cyclononaphane-9-one], the pIC50 on JAK1 was 6.00 to 7.00; on JAK2 it was 6.00 to 7.00; at JAK3, 7.00 to 7.96; at TYK2, 5.00 to 6.00.

Consider `O=C1Nc2ccc(cc2)OCc2cc(ccc2OCC2CCCOC2)Nc2nccc(n2)-c2ccc1cc2[N+](=O)[O-]` (centres unmarked) [Example 212, 1^2-nitro-4^4-((tetrahydro-2H-pyran-3-yl)methoxy)-6-oxa-3,8-diaza-2(4,2)-pyrimidina-1,7(1,4),4(1,3)-tri-benzenacyclononaphane-9-one], for which the pIC50 at JAK1 was 5.00 to 6.00; against JAK2, 5.00 to 6.00; at JAK3, 5.00 to 6.00; on TYK2, less than 5.00.

On to `Nc1cc2ccc1-c1ccnc(n1)Nc1ccc(OCC3CCCOC3)c(c1)COc1ccc(cc1)NC2=O` (centres unmarked) [Example 213, 1^2-amino-4^4-((tetrahydro-2H-pyran-3-yl)methoxy)-6-oxa-3,8-diaza-2(4,2)-pyrimidina-1,7(1,4),4(1,3)-tri-benzenacyclononaphane-9-one], for which the pIC50 was 5.00 to 6.00 on JAK1, 5.00 to 6.00 against JAK2, 7.00 to 7.96 at JAK3 and less than 5.00 at TYK2.

For the compound `Nc1cc2ccc1-c1ccnc(n1)Nc1ccc(OCC3COC3)c(c1)COc1ccc(cc1)NC2=O` [Example 214, 1-amino-4^4-(oxetan-3-ylmethoxy)-6-oxa-3,8-diaza-2(4,2)-pyrimidina-1,7(1,4)4(1,3)-tribenzenacyclonona-phane-9-one], the pIC50 on JAK1 was 5.00 to 6.00; against JAK2, 6.00 to 7.00; on JAK3, 7.00 to 7.96; at TYK2, 5.00 to 6.00.

Regarding `O=C1Nc2ccc(cc2)OCc2cc(ccc2OC2CCCC2)Nc2nccc(n2)-c2ccc1cc2O` [Example 215, 4^4-(cyclopentoxy)-1^2-hydroxy-6-oxa-3,8-diaza-2 (4,2)-pyrimidina-1,7(1,4),4(1,3)-tribenzenacyclononaphane-9-one], the pIC50 on JAK1 is 5.00 to 6.00; against JAK2, 6.00 to 7.00; at JAK3, 7.00 to 7.96; on TYK2, 5.00 to 6.00.

As to `O=C1Nc2ccc(cc2)OCc2cc(ccc2F)Nc2nccc(n2)-c2ccc1cc2O` [Example 216, 4^4-fluoro-1^2-hydroxy-6-oxa-3,8-dia-za-2(4,2)-pyrimidina-1,7(1,4),4(1,3)-tribenzenacyclononaphane-9-one], the pIC50 at JAK1 was 6.00 to 7.00; against JAK2, 6.00 to 7.00; on JAK3 it was 7.00 to 7.96; at TYK2, 5.00 to 6.00.

For the compound `O=C1Nc2ccc(cc2)OCc2cc(ccc2OC2CC2)Nc2nccc(n2)-c2ccc1cc2O` [Example 217, 4^4-cyclopropoxy-1^2-hydroxy-6-oxa-3,8-diaza-2(4,2)-pyrimidina-1,7(1,4),4(1,3)-tribenzenacyclononaphane-9-one], the pIC50 was 6.00 to 7.00 on JAK1, 6.00 to 7.00 against JAK2, 7.00 to 7.96 on JAK3 and 5.00 to 6.00 on TYK2.
